Measured values reported in US9622997B2, “Methods for treating insomnia” (Lynn Health Science Institute, Inc., priority 2012, dated 2017).

Key:
normal participants = details: acute dose 40 mg; cited from earlier work
[1] = test system: individuals with complaints of nighttime heartburn or regurgitation; assay: Cross-over trial with esophageal pH monitoring combined with overnight PSG after reflux-provoking meal; type: in vivo, human
Text: Individuals aged 18-65 (inclusive) with complaints of nighttime heartburn or regurgitation at least twice per week and a Carlsson GERD score of at least 5 were invited to participate. […] Participants were also excluded if they took sedating medications on a regular basis (PRN use was allowed if they agreed to abstain from use on the nights in the sleep laboratory). Participants were recruited from a database of patients with heartburn complaints. These participants had previously expressed interest in participating in medical research studies at our facility. Advertising was not utilized in recruitment.
Esophageal pH monitoring was performed using an antimony pH catheter (Sandhill Scientific, Highlands Ranch, Colo., USA) placed in the distal esophagus. The catheter was inserted into the esophagus via the nares and positioned so that the pH electrode was 5 cm above the manometrically determined LES. Prior to insertion the pH electrode was calibrated against solutions of pH 4 and 7. The catheter was connected to an acid reflux monitor, which allowed continuous recordings of esophageal pH for a 24-hour period as well as simultaneous pH monitoring during PSG (ZepHr, Sandhill Scientific).
Data were analyzed using BioVIEW Analysis software (Sandhill Scientific). This software provides a report of upright, supine, and total acid contact time (ACT), which were used as outcome measures in the study.
Overnight polysomnography included monitoring of electroencephalography, electroocculography, submental electromyography, airflow (thermistor), electrocardiogram and SaO2. Distal and proximal pH was also recorded via the polysomnography system. […] “Lights Out” occurred at the patient's usual bedtime. Time in bed was standardized to 8 hours. For the purposes of this study, significant sleep apnea was defined as an apnea hypopnea index (AHI) of at least 10 events per hour of sleep. Individuals with an AHI of 10 or greater on the first sleep study were excluded from the study. Likewise, individuals with a periodic limb movement arousal index (PLMAI) of 10 or greater were excluded.
A reflux event was defined as a period of at least 30 consecutive seconds with pH readings below 4. A reflux event ended when the pH rose to 4 or greater for a period of at least 30 seconds. Reflux events were only counted if they occurred after PSG documented sleep onset had occurred. These analyses were done by hand in order to determine which events occurred during sleep and which occurred during wake. […]
The second and third visits were scheduled one to two weeks after the initial visit, and were separated by a washout period of approximately one week. […] The order of medication was determined by a computer-generated list of random sequences. […]

[2] = test system: healthy subjects subjected to a transient insomnia protocol; assay: Next day residual effects (DSST, SCT, VAS) and adverse events after PSG night; type: in vivo, human
Method: Next day residual effects were assessed by a comparing pre- and post-PSG Digit Symbol Substitution Test (DSST; 90-s duration) and Symbol Copying Test (SCT; 90-s duration). Hangover effect of baclofen 20 mg was assessed by comparing a Visual Analog Scale (VAS) for sleepiness administered the morning after each PSG. DSST and SCT were administered prior to study medication provided 90 minutes before Lights Out. DSST, SCT, and VAS were conducted 30 minutes after Lights On in the order given. Subjects were contacted between 24-48 hours after each PSG to assess any side-effects or adverse events.
The primary outcome variables were WASO, TST, and SE. Secondary outcome variables were SOL, sTST, sSOL, and sNAS. Exploratory variables to assess residual effects were cognitive and visual analog test scores (DSST, SCT, and VAS). Objective PSG measures such as the percent of time in each sleep stage, subjective self-reports, and residual effects were analyzed using SPSS 11.0 (SPSS Inc., Chicago, Ill., USA). Paired samples t-tests were used to compare means between treatment groups for normally distributed dependent measures. Wilcoxon signed-rank tests were used to compare the medians between treatment groups for non-normally distributed dependent measures. Sample size determination was made based on previous findings in our laboratory from a study of the effect of baclofen in patients with nighttime reflux.

[3] = baclofen 20 mg vs placebo, next day residual effects, 30 minutes after Lights On

NCC(CC(=O)O)c1ccc(Cl)cc1 (stereo not shown) [Baclofen, 4-amino-3-(4-chlorophenyl)-butanoic acid]
ACT (normal participants): no significant change | postprandial reflux events (normal participants): significant reduction | adverse events ([1]; baclofen 40 mg): No adverse events were documented | reduction in number of distal reflux events occurring after PSG-determined sleep onset compared to placebo ([1]; baclofen 40 mg 90 minutes before bed, n=21, p<0.05): 56% | reflux events associated with wakefulness and with sleep, compared to placebo ([1]; baclofen 40 mg, FIG. 1C): reduced reflux events | decrease in recumbent ACT (acid contact time) versus placebo ([1]; baclofen 40 mg, not statistically significant): approximately 50% | residual sleepiness testing, Visual Analog Scale (VAS) ([2]; baclofen 20 mg vs placebo, morning after each PSG): no significant differences between treatment conditions | cognitive testing, Digit Symbol Substitution Test (DSST) [2, 3]: no significant differences between treatment conditions | cognitive testing, Symbol Copying Test (SCT) [2, 3]: no significant differences between treatment conditions | serious adverse events ([2]; baclofen 20 mg, contacted 24-48 hours after each PSG): No serious adverse events were reported
